# Experimental data reported in ChEMBL document CHEMBL3885861, “Open TG-GATES”.
# Organism: Rattus norvegicus
# Assay: Open TG-GATES - Regimen: Single
# Format: toxicity, organism-based, Sprague-Dawley
# Set-up: regimen Single, gender Male, age 6 weeks
# Conditions: in vivo, po, 60 mg/kg, route gavage, dose level Middle; for APTT / Bas / Eos / Fbg / Hb / Ht / Lym / MCH / MCHC / MCV / Mono / Neu / PT / Plat / RBC / Ret / WBC: tissue Blood; for KIDNEY_L / KIDNEY_R / KIDNEY_TOTAL: tissue Kidney; for LIVER: tissue Liver; for A/G / ALP / ALT / AST / BUN / CRE / Ca / Cl / DBIL / GLC / IP / K / LDH / Na / PL / RALB / TBIL / TC / TG / TP / gamma-GTP: tissue Plasma
compound,measurement,setting,value
CC(CN1c2ccccc2Sc2ccccc21)N(C)C (configuration not stated) [PROMETHAZINE],TERMINAL_BW,3 h,213.4 g
same,APTT,3 h,22.4 s
same,Bas,3 h,0%
same,Eos,3 h,1%
same,Fbg,3 h,317 mg/dL
same,Hb,3 h,13.2 g/dL
same,Ht,3 h,40.6%
same,Lym,3 h,71.6%
same,MCH,3 h,20.2 pg
same,MCHC,3 h,32.6%
same,MCV,3 h,62 fL
same,Mono,3 h,2.2%
same,Neu,3 h,25%
same,PT,3 h,16.4 s
same,Plat,3 h,126 x10_4/uL
same,RBC,3 h,655.2 x10_4/ul
same,Ret,3 h,7.3%
same,WBC,3 h,64.7 x10_2/uL
same,KIDNEY_L,3 h,0.9 g
same,KIDNEY_R,3 h,0.9 g
same,KIDNEY_TOTAL,3 h,1.9 g
same,LIVER,3 h,9.3 g
same,A/G,3 h,1.3
same,ALP,3 h,1673 IU/L
same,ALT,3 h,56.2 IU/L
same,AST,3 h,87.6 IU/L
same,BUN,3 h,9.6 mg/dL
same,CRE,3 h,0.2 mg/dL
same,Ca,3 h,10.5 mg/dL
same,Cl,3 h,105.6 meq/L
same,DBIL,3 h,0.024 mg/dL
same,GLC,3 h,172.8 mg/dL
same,IP,3 h,9.6 mg/dL
same,K,3 h,4.3 meq/L
same,LDH,3 h,222.6 IU/L
same,Na,3 h,142.6 meq/L
same,PL,3 h,132 mg/dL
same,RALB,3 h,3.1 g/dL
same,TBIL,3 h,0.016 mg/dL
same,TC,3 h,75 mg/dL
same,TG,3 h,50 mg/dL
same,TP,3 h,5.5 g/dL
same,gamma-GTP,3 h,1.2 IU/L
same,TERMINAL_BW,6 h,210 g
same,APTT,6 h,23.8 s
same,Bas,6 h,0%
same,Eos,6 h,0.8%
same,Fbg,6 h,322 mg/dL
same,Hb,6 h,13.4 g/dL
same,Ht,6 h,40.7%
same,Lym,6 h,77.2%
same,MCH,6 h,20.1 pg
same,MCHC,6 h,33%
same,MCV,6 h,61.1 fL
same,Mono,6 h,2.8%
same,Neu,6 h,18.4%
same,PT,6 h,16.3 s
same,Plat,6 h,112.6 x10_4/uL
same,RBC,6 h,667.8 x10_4/ul
same,Ret,6 h,7.3%
same,WBC,6 h,85.9 x10_2/uL
same,KIDNEY_L,6 h,0.9 g
same,KIDNEY_R,6 h,0.9 g
same,KIDNEY_TOTAL,6 h,1.8 g
same,LIVER,6 h,8.6 g
same,A/G,6 h,1.3
same,ALP,6 h,1478.6 IU/L
same,ALT,6 h,43.2 IU/L
same,AST,6 h,74.6 IU/L
same,BUN,6 h,9.4 mg/dL
same,CRE,6 h,0.2 mg/dL
same,Ca,6 h,10.9 mg/dL
same,Cl,6 h,105.2 meq/L
same,DBIL,6 h,0.016 mg/dL
same,GLC,6 h,180.6 mg/dL
same,IP,6 h,9.6 mg/dL
same,K,6 h,4.3 meq/L
same,LDH,6 h,192.2 IU/L
same,Na,6 h,141.8 meq/L
same,PL,6 h,125 mg/dL
same,RALB,6 h,3 g/dL
same,TBIL,6 h,0.022 mg/dL
same,TC,6 h,71.6 mg/dL
same,TG,6 h,49 mg/dL
same,TP,6 h,5.5 g/dL
same,gamma-GTP,6 h,1.4 IU/L
same,TERMINAL_BW,9 h,211 g
same,APTT,9 h,24.1 s
same,Bas,9 h,0%
same,Eos,9 h,1%
same,Fbg,9 h,315.8 mg/dL
same,Hb,9 h,13.3 g/dL
same,Ht,9 h,40.8%
same,Lym,9 h,78.6%
same,MCH,9 h,20.4 pg
same,MCHC,9 h,32.6%
same,MCV,9 h,62.5 fL
same,Mono,9 h,3%
same,Neu,9 h,17.2%
same,PT,9 h,16.6 s
same,Plat,9 h,122 x10_4/uL
same,RBC,9 h,652.4 x10_4/ul
same,Ret,9 h,7.6%
same,WBC,9 h,101.4 x10_2/uL
same,KIDNEY_L,9 h,0.9 g
same,KIDNEY_R,9 h,0.9 g
same,KIDNEY_TOTAL,9 h,1.8 g
same,LIVER,9 h,8.3 g
same,A/G,9 h,1.3
same,ALP,9 h,1318.2 IU/L
same,ALT,9 h,43.2 IU/L
same,AST,9 h,69.6 IU/L
same,BUN,9 h,11.6 mg/dL
same,CRE,9 h,0.2 mg/dL
same,Ca,9 h,10.7 mg/dL
same,Cl,9 h,106.2 meq/L
same,DBIL,9 h,0.02 mg/dL
same,GLC,9 h,179.2 mg/dL
same,IP,9 h,9.5 mg/dL
same,K,9 h,4.2 meq/L
same,LDH,9 h,155.8 IU/L
same,Na,9 h,140.2 meq/L
same,PL,9 h,131 mg/dL
same,RALB,9 h,3 g/dL
same,TBIL,9 h,0.026 mg/dL
same,TC,9 h,77 mg/dL
same,TG,9 h,46.8 mg/dL
same,TP,9 h,5.4 g/dL
same,gamma-GTP,9 h,1.2 IU/L
same,TERMINAL_BW,24 h,217.9 g
same,APTT,24 h,23.6 s
same,Bas,24 h,0%
same,Eos,24 h,1%
same,Fbg,24 h,311.6 mg/dL
same,Hb,24 h,13.4 g/dL
same,Ht,24 h,40.3%
same,Lym,24 h,80%
same,MCH,24 h,21.1 pg
same,MCHC,24 h,33.3%
same,MCV,24 h,63.4 fL
same,Mono,24 h,2.2%
same,Neu,24 h,16%
same,PT,24 h,16.7 s
same,Plat,24 h,126.1 x10_4/uL
same,RBC,24 h,635.4 x10_4/ul
same,Ret,24 h,6.8%
same,WBC,24 h,113 x10_2/uL
same,KIDNEY_L,24 h,1 g
same,KIDNEY_R,24 h,1 g
same,KIDNEY_TOTAL,24 h,1.9 g
same,LIVER,24 h,9.5 g
same,A/G,24 h,1.3
same,ALP,24 h,1785 IU/L
same,ALT,24 h,46.8 IU/L
same,AST,24 h,68 IU/L
same,BUN,24 h,17.6 mg/dL
same,CRE,24 h,0.2 mg/dL
same,Ca,24 h,10.8 mg/dL
same,Cl,24 h,106.4 meq/L
same,DBIL,24 h,0.004 mg/dL
same,GLC,24 h,190.6 mg/dL
same,IP,24 h,7.4 mg/dL
same,K,24 h,4.1 meq/L
same,LDH,24 h,185.4 IU/L
same,Na,24 h,142 meq/L
same,PL,24 h,127.6 mg/dL
same,RALB,24 h,3.1 g/dL
same,TBIL,24 h,0.014 mg/dL
same,TC,24 h,68.8 mg/dL
same,TG,24 h,73 mg/dL
same,TP,24 h,5.5 g/dL
same,gamma-GTP,24 h,1.2 IU/L
